Assay results from PMC6753678, “Fueling Open Innovation for Malaria Transmission-Blocking Drugs: Hundreds of Molecules Targeting Early Parasite Mosquito Stages” (Frontiers in Microbiology, 2019).
Where two headings read alike, the source gives them in different places.

Tests used:
[1] = system: 3D7-strain P. falciparum asexual parasites; test: P. falciparum asexual growth inhibition assay (Pf GIA); format: cell-based, Plasmodium falciparum; details: dose response confirmation; read-out: Pf asexual growth inhibition assays IC50
Protocol: The asexual activity of active compounds was tested in dose response with parasite lactate dehydrogenase (LDH) activity used as a readout of parasite viability as described in [Gamo et al. (2010)]. Briefly, 3D7-strain P. falciparum asexual parasites were diluted to 0.25% parasitemia, 2% hematocrit in culture medium composed of RPMI medium with 25 mM HEPES, 2% D-sucrose, 0.3% L-glutamine, 150 μM hypoxanthine plus 5% albumax. 25 μl of parasite inoculum was then dispensed into each well of a 384 well plate containing test compounds and positive (50 μM chloroquine) and negative (DMSO) controls. Plates were incubated for 72 h at 37°C in a 5% CO2, 5%O2, 90% N2 environment before being frozen at −70°C. Plates were then thawed and 70 μl of reaction mix (143 mM sodium L-lactate, 143 mM 3-acetyl pyridine adenine dinucleotide, […] Nitro Blue tetrazolium chloride, […] diaphorase (2.83 U/ml), 0.7% Tween 20, 100 mM Tris–HCl pH 8.0) was added to each well using a Multidrop Combi automated dispenser. Plates were shaken to mix and then absorbance at 650 nm was measured after 10 min incubation at room temperature. Percent inhibition of asexual growth was then calculated with respect to positive and negative controls. Data presented is the mean of three independent biological replicates.

HepG2 cells = test: HepG2 cytotoxicity assay; details: for IC50: read-out: HepG2 cytotoxicity assay IC50, dose response confirmation; for Unified cytotox: unified HepG2 value across the three screens; for Pb ODA (this manuscript) HepG2 cytoxicity: HepG2 cytotoxicity listed with the Pb ODA data set (this manuscript)
Protocol: Briefly, HepG2 cells were seeded onto compound-treated 384 well plates at a density of 2,500 cells per well in Minimal Essential Medium (MEM) plus 10% fetal bovine serum and 1% non-essential amino acids solution (NEAA). Cells were incubated with test compounds or 50 μM doxorubicin (positive) and DSMO (negative) controls at 37°C for 48 h in a humidified 5% CO2 atmosphere. […] Cell viability was then measured in a fluorescent plate reader and percent inhibition calculated with respect to positive and negative controls.

[2] = system: P. berghei ookinete development; details: for % inhibition, Replicate A / % inhibition, Replicate B: primary screen at 1 μM
[3] = read-out: Pb ODA IC50, this manuscript
[4] = read-out: Pb Ookinete development assay IC50, dose response confirmation
[5] = read-out: Pb ODA (this manuscript) IC50, P. berghei ookinete development assay, this manuscript

SMILES: Cc1ccc(Nc2nc(N/N=C/c3cccc(O)c3)nc(Nc3ccc([N+](=O)[O-])cc3)n2)cc1C [TCMDC-124125]
- IC50 [1]: 1820 nM
- IC50 (HepG2 cells): 100000 nM
- Unified cytotox (HepG2 cells): 100.00 µM
- Is compound selective in assay? Pb ODA active? ([2]; 1: YES, 0: NO): 1 (1: YES)
- % inhibition, Replicate A [2]: 68.98%
- % inhibition, Replicate B [2]: 54.76%
- IC50 [2, 3]: 3830 nM
- IC50 [2, 4]: 3830 nM

SMILES: COc1ccc2nc3cc(Cl)ccc3c(NCCCO)c2c1 [TCMDC-124144]
- IC50 [1]: 210 nM
- Pb ODA (this manuscript) HepG2 cytoxicity (HepG2 cells): 7.08 µM
- IC50 (HepG2 cells): 7080 nM
- Is compound selective in assay? Pb ODA active? [2]: 0 (key: 1: YES; 0: NO)
- % inhibition, Replicate A [2]: 19.58%
- % inhibition, Replicate B [2]: 67.10%
- IC50 [2, 4]: 1300 nM

SMILES: CC(C)CN1CCN(c2nc(C#N)c3c(c2C(=S)NC2CCCCC2)CC(C)(C)OC3)CC1 [TCMDC-124173]
- IC50 [1]: 415 nM
- IC50 (HepG2 cells): 100000 nM
- Unified cytotox (HepG2 cells): 100.00 µM
- Is compound selective in assay? Pb ODA active? ([2]; 1: YES, 0: NO): 1 (1: YES)
- % inhibition, Replicate A [2]: 37.56%
- % inhibition, Replicate B [2]: 54.94%
- IC50 [2, 3]: 4890 nM
- IC50 [2, 4]: 4890 nM

SMILES: COc1ccc(C=NNc2nc(O)cc(-c3ccccc3)n2)cc1OC [TCMDC-124217]
- IC50 [1]: 630 nM
- IC50 (HepG2 cells): 58200 nM
- Unified cytotox (HepG2 cells): 58.21 µM
- Is compound selective in assay? Pb ODA active? ([2]; 1: YES, 0: NO): 1 (1: YES)
- % inhibition, Replicate A [2]: 58.99%
- % inhibition, Replicate B [2]: 66.09%
- IC50 [2, 3]: 500 nM
- IC50 [2, 4]: 497 nM

SMILES: COc1cc(OC)nc(C(Sc2ccc(NC(=O)c3cccs3)cc2)c2ccccc2)n1 (centres unmarked) [TCMDC-124257]
- IC50 [1]: 184 nM
- IC50 (HepG2 cells): 100000 nM
- Unified cytotox (HepG2 cells): 100.00 µM
- Is compound selective in assay? Pb ODA active? ([2]; 1: YES, 0: NO): 1 (1: YES)
- % inhibition, Replicate A [2]: 29.98%
- % inhibition, Replicate B [2]: 55.99%
- IC50 [2, 3]: 970 nM
- IC50 [2, 4]: 973 nM

SMILES: COc1ccc2nc3cc(Cl)ccc3c(NCCO)c2c1.Cl [TCMDC-124272]
- IC50 [1]: 404 nM
- Pb ODA (this manuscript) HepG2 cytoxicity (HepG2 cells): 15.67 µM
- IC50 (HepG2 cells): 15700 nM
- Is compound selective in assay? Pb ODA active? [2]: 1 (key: 1: YES; 0: NO)
- % inhibition, Replicate A [2]: 66.85%
- % inhibition, Replicate B [2]: 79.62%
- IC50 [2, 5]: 840 nM
- IC50 [2, 4]: 843 nM

SMILES: Cc1ccc2[nH]c(C)c(Br)c(=O)c2c1 [TCMDC-124347]
- IC50 [1]: 3820 nM
- IC50 (HepG2 cells): 100000 nM
- Unified cytotox (HepG2 cells): 100.00 µM
- Is compound selective in assay? Pb ODA active? ([2]; 1: YES, 0: NO): 1 (1: YES)
- % inhibition, Replicate A [2]: 68.86%
- % inhibition, Replicate B [2]: 49.90%
- IC50 [2, 3]: 2450 nM
- IC50 [2, 4]: 2450 nM

SMILES: CC(=O)Nc1ccc(Nc2c3ccccc3nc3ccccc23)cc1 [TCMDC-124356]
- IC50 [1]: 1090 nM
- IC50 (HepG2 cells): 14100 nM
- Unified cytotox (HepG2 cells): 14.13 µM
- Is compound selective in assay? Pb ODA active? ([2]; 1: YES, 0: NO): 1 (1: YES)
- % inhibition, Replicate A [2]: 62.81%
- % inhibition, Replicate B [2]: 63.52%
- IC50 [2, 3]: 600 nM
- IC50 [2, 4]: 598 nM

SMILES: CCn1c(C)cc(C=C2SC(=Nc3ccccc3)NC2=O)c1C [TCMDC-124456]
- IC50 [1]: 1700 nM
- IC50 (HepG2 cells): 97300 nM
- Unified cytotox (HepG2 cells): 97.27 µM
- Is compound selective in assay? Pb ODA active? ([2]; 1: YES, 0: NO): 1 (1: YES)
- % inhibition, Replicate A [2]: 41.94%
- % inhibition, Replicate B [2]: 67.52%
- IC50 [2, 3]: 1010 nM
- IC50 [2, 4]: 1000 nM

SMILES: COc1ccc(C=C2SC(=N)N(c3ccccc3OC)C2=O)cc1 [TCMDC-124486]
- IC50 [1]: 343 nM
- IC50 (HepG2 cells): 24600 nM
- Unified cytotox (HepG2 cells): 24.55 µM
- Is compound selective in assay? Pb ODA active? ([2]; 1: YES, 0: NO): 1 (1: YES)
- % inhibition, Replicate A [2]: 113.35%
- % inhibition, Replicate B [2]: 91.87%
- IC50 [2, 3]: 680 nM
- IC50 [2, 4]: 682 nM

SMILES: Cc1cc2nc(/N=C(\N)NC(=O)NC3CCCCC3)nc(C)c2cc1C [TCMDC-124528]
- IC50 [1]: 396 nM
- Pb ODA (this manuscript) HepG2 cytoxicity (HepG2 cells): 8.51 µM
- IC50 (HepG2 cells): 8510 nM
- Is compound selective in assay? Pb ODA active? [2]: 1 (key: 1: YES; 0: NO)
- % inhibition, Replicate A [2]: 53.37%
- % inhibition, Replicate B [2]: 63.38%
- IC50 [2, 5]: 850 nM
- IC50 [2, 4]: 846 nM

SMILES: CCc1cc2c(Sc3nc4ccccc4[nH]3)ncnc2s1 [TCMDC-124553]
- IC50 [1]: 1760 nM
- IC50 (HepG2 cells): 100000 nM
- Unified cytotox (HepG2 cells): 100.00 µM
- Is compound selective in assay? Pb ODA active? ([2]; 1: YES, 0: NO): 1 (1: YES)
- % inhibition, Replicate A [2]: 56.26%
- % inhibition, Replicate B [2]: 84.90%
- IC50 [2, 3]: 1000 nM
- IC50 [2, 4]: 998 nM
